Assay results published in patent US12275721B2, “Indazole carboxamides as kinase inhibitors” (BRISTOL-MYERS SQUIBB COMPANY, priority 2019, dated 2025).
Where two headings read alike, the source gives them in different places.

Assays:
[1] = test system: MLKL phosphorylation in HT29-L23 human colorectal adenocarcinoma cells; test: MLKL Phosphorylation High-Content Assay; type: cell-based; conditions: necroptosis induced with TNFα, SMAC mimetic and Z-VAD, 6 h, read-out: pMLKL (IC50)
[2] = biological target: T1, His-GST-TVMV-hRIPK1(1-324) (Homo sapiens, UniProt Q13546); test: RIPK1 HTRF Binding Assay; conditions: HTRF probe displacement, 1 h at rt
T1 construct: 1 nM His-GST-TVMV-hRIPK1(1-324) in FRET Buffer; made in house; host or cells: Spodoptera frugiperda (Sf9) insect cells, baculovirus (Bac-to-Bac)
T1 sequence (Q13546 1-324): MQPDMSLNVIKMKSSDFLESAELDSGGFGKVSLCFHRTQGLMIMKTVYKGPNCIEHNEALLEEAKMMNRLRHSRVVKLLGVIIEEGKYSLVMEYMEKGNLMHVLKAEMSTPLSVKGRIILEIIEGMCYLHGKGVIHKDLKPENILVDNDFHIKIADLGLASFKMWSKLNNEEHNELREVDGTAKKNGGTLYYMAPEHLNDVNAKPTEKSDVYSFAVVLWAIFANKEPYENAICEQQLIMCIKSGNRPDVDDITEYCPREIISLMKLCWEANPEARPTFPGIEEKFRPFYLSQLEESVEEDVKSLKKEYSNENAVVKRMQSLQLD
Protocol: A solution was prepared containing 0.2 nM Anti GST-Tb (Cisbio, 61GSTTLB), 90.6 nM probe and 1 nM His-GST-TVMV-hRIPK1(1-324) in FRET Buffer (20 mM HEPES, 10 mM MgCl2, 0.015% Brij-35, 4 mM DTT, 0.05 mg/mL BSA). Using Formulatrix Tempest, the detection antibody/enzyme/probe solution ([…]) was dispensed into wells of a 1536 plate (Black Low Binding Polystyrene 1536 Plate (Corning, 3724)) containing 10 nL of compounds of interest at appropriate concentration in DMSO. The plate was incubated at rt for 1 h. FRET was measured using the EnVision plate reader (Excitation: 340 nm, Emission: 520 nm/[…]). Total signal (0% inhibition) was calculated from wells containing 10 nL DMSO only.
Cloning and Baculovirus Expression of RIPK1 Construct
The coding region of human RIPK1(1-324) flanked by NdeI site at 5′ end and stop codon TGA and XhoI site at 3′ end was codon optimized and gene synthesized at GenScript USA Inc. (Piscataway, NJ) and subcloned into a modified pFastBac1 vector (Invitrogen, Carlsbad, CA) with N-terminal His-GST-TVMV tag, to generate His-GST TVMV-hRIPK1(1-324)-pFB. The fidelity of the synthetic fragment was confirmed by sequencing. Baculovirus was generated for the construct using the Bac-to-Bac baculovirus expression system (Invitrogen) according to the manufacturer's protocol. Briefly, recombinant bacmid was isolated from transformed DH10Bac E. coli competent cells 20 (Invitrogen) and used to transfect Spodoptera frugiperda (Sf9) insect cells (Invitrogen). Baculovirus was harvested 72 hours post transfection and a virus stock was prepared by infecting fresh Sf9 cells at a 1/1000 (v/v) ratio for 66 hours. For large scale protein production, Sf9 cells (Expression System, Davis, CA) grown in ESF921 insect medium (Expression System) at 2×10^6 cells/ml were infected with virus stock at a 1/100 (v/v) ratio for 66 hours. The production was carried out either at a 10 L scale in a 22 L cellbag (GE Healthcare Bioscience, Pittsburgh, PA) or at a 20 L scale in a 50 L cellbag using WAVE-Bioreactor System 20/50 (GE Healthcare Bioscience). The infected cells were harvested by centrifugation at 2000 rpm for 20 min at 4° C. in a SORVALL® RC12BP centrifuge. The cell pellets was stored at −70° C. before protein was purified.
Purification of His-GST-TVMV-hRIPK1(1-324)
RIPK1 containing cell paste was resuspended in 50 mM Tris pH 7.5, 150 mM NaCl, 10 mM imidazole, 5% glycerol, 5 mM MgSO4, 1 mM TCEP, 25 U/ml Benzonase, and Complete Protease Inhibitor tablets (1/50 ml, Roche Diagnostics, Indianapolis, IN). The cells were lysed by nitrogen cavitation using an unstirred pressure vessel @ 525 PSI (Parr Instrument Company, Moline, IL). The suspension was clarified by centrifugation at 136,000×g for 40 min, at 4° C. The lysate was decanted from the pellet and passed through a 5 ml NiNTA Superflow cartridge (Qiagen, Valencia, CA) using an AKTA Pure (GE Healthcare). Column was eluted with 10 CV linear gradient into 50 mM Tris 7.5, 150 mM NaCl, 500 mM imidazole, 5% glycerol, 1 mM TCEP. Peak fractions were pooled and loaded directly onto 5 ml GSTrap 4B column (GE Healthcare). Column was washed with 50 mM Tris 7.0, 150 mM NaCl, […], 1 mM DTT and eluted in 10 CV linear gradient into 50 mM Tris 8.0, 150 mM NaCl, 20 mM reduced glutathione, 50% glycerol, 1 mM DTT. Fractions identified by SDS-PAGE as containing RIPK1 were pooled and concentrated using 30 kDa MWCO spin concentrators (Amicon Ultra-15, Millipore, Billerica, MA) and loaded onto a HiLoad 26/600 Superdex 200 column (GE Healthcare) equilibrated in 25 mM Tris 7.5, 150 mM NaCl, 2 mM TCEP, […]. The RTPK1 protein eluted as a dimer off the SEC column. The yield was ˜8 mg/L with a purity […] as determined by Coomassie stain SDS-PAGE gel analysis. […] Protein was aliquoted and stored at −80° C. Using these assays, the IC50 values of the following compounds were determined.

Row | Compound | IC50 ([1]; Homo sapiens) | IC50 [2] | IC50 [1]
1 | CNC(=O)c1n[nH]c2cc(-c3nc(C(=O)NCCC(C)c4ccccc4)c(C)n3C)ccc12 (stereo not shown) [Example 32, 6-(1,5-dimethyl-4-((3-phenylbutyl)carbamoyl)-1H-imidazol-2-yl)-N-methyl-1H-indazole-3-carboxamide] | 460 nM | 230 nM | 
2 | CNC(=O)c1n[nH]c2cc(-c3nc(C(=O)NCC[C@@H](O)c4ccc(Cl)cc4)c(C)n3C)ccc12 [Example 33, (R)-6-(4-((3-(4-chlorophenyl)-3-hydroxypropyl)carbamoyl)-1,5-dimethyl-1H-imidazol-2-yl)-N-methyl-1H-indazole-3-carboxamide] | 2200 nM | 570 nM | 
3 | CNC(=O)c1n[nH]c2cc(-c3nc(C(=O)NCC[C@H](O)c4ccc(Cl)cc4)c(C)n3C)ccc12 [Example 34, (S)-6-(4-((3-(4-chlorophenyl)-3-hydroxypropyl)carbamoyl)-1,5-dimethyl-1H-imidazol-2-yl)-N-methyl-1H-indazole-3-carboxamide] | 1700 nM | 760 nM | 
4 | CNC(=O)c1n[nH]c2cc(-c3nc(C(=O)NCc4cc(C(F)(F)F)ccc4F)c(C)n3C)ccc12 [Example 35, 6-(4-((2-fluoro-5-(trifluoromethyl)benzyl)carbamoyl)-1,5-dimethyl-1H-imidazol-2-yl)-N-methyl-1H-indazole-3-carboxamide] | 890 nM | 200 nM | 
5 | (S)-6-(5-((3-(4-chlorophenyl)-3-hydroxypropyl)carbamoyl)-4-methylthiophen-2-yl)-N-methyl-1H-indazole-3-carboxamide [Example 13] |  | 10 nM | 23 nM
